Source: patent publication US10188689B2, “Method and composition for treating breast cancer” (STELLENBOSCH UNIVERSITY, priority 2014, dated 2019)

Tested on: Phospho-ser15-p53
Assay: Western blot of tumours from treated mice: phospho-ser15-p53
Assay type: in vivo, C57BL6 mice
Conditions: tumours of Dox treated mice, seven days
Method: Following the weighing and grouping of mice, treatment with D. viscosa extract commenced. Tumour size was measured every two days by taking measurements in two perpendicular dimensions using digital calipers. The D. viscosa extract was administered through raspberry flavoured jelly blocks. Mice were conditioned to the taste of the jelly four days before treatment began. Human dosage (5.24 mg/kg/day) and the Km factor were used for dose translation based on body surface area to calculate animal dosage to be administered (Reagan-Shaw et al., 2007). On the day of treatment, mice were put in separate cages and given a 1 cm×1 cm block of jelly injected with 146 μL extract per jelly block (0.065 mg/g average bodyweight) at dusk every day, for a period of seven days. The day after the last treatment, mice were sacrificed by decapitation, where after tumours were harvested and frozen at −80° C. until needed.
Protein extraction from cells took place after the 24 hour treatment period. The medium was aspirated and the flasks were placed on ice. […] Cell lysates were then centrifuged at room temperature for 10 minutes at 8000 rpm, where after the protein content of each lysate was determined using the Bradford method (Bradford, 1976). […] After extraction protein content was determined with the Bradford method (Bradford, 1976) and stored at −80° C. until analysis, […]

## COc1cccc2c1C(=O)c1c(O)c3c(c(O)c1C2=O)C[C@@](O)(C(=O)CO)C[C@@H]3O[C@H]1C[C@H](N)[C@H](O)[C@H](C)O1 [Dox, doxorubicin]
  level of p53 in tumours (ratio of phospho-ser15-p53 to total p53): 5.3±1.016 fold increase relative to cont
